Source: article PMC4746275, “Norfloxacin and N-Donor Mixed-Ligand Copper(II) Complexes: Synthesis, Albumin Interaction, and Anti-Trypanosoma cruzi Activity” (Bioinorganic Chemistry and Applications, 2016)
Read-outs that look alike come from different tables or passages of the source.

What was measured:
[1] = tested on: bloodstream trypomastigotes (BT) forms of T. cruzi (Y strain); parameters: method as in Martins et al., 2012 [14]; details: ref Martins et al., 2012 [14], cited from earlier work; for SI (selective index: ratio between LC50/EC50 values): LC50 on mammalian cardiac cells / EC50 on BT forms; for EC50: mean ± SD, 24 h of incubation at 37°C, Y strain, read-out: EC50 (drug concentration which reduces the number of the parasites by 50%)
[2] = tested on: bloodstream trypomastigotes (BT) forms of T. cruzi (Y strain); assay: Trypanocidal analysis in vitro on bloodstream trypomastigotes; assay type: cell-based, Trypanosoma cruzi; details: for SI (selective index: ratio between LC50/EC50 values): LC50 on mammalian cardiac cells (24 h) / EC50 on BT forms; for EC50: mean ± SD, 24 h of incubation at 37°C, Y strain, read-out: EC50 (drug concentration which reduces the number of the parasites by 50%); for times more active than benznidazole: comparison of EC50 values on bloodstream trypomastigotes
Method: Y strain of T. cruzi was used throughout the experiments. Bloodstream forms were harvested by heart puncture from T. cruzi-infected Swiss mice at the peak of parasitemia.
For the in vitro analysis on trypomastigotes, the parasites were incubated at 310 K in the presence of increasing doses (0–200 μM) of each compound diluted in Dulbecco's modified Eagle's medium which was supplemented with 5% fetal bovine serum and 1 mM L-glutamine (DMES). After 24 h, death rates were determined by light microscopy through the direct quantification of live parasites using Neubauer chamber, and EC50 values (drug concentration which reduces 50% of the number of live parasites) were then calculated as reported.

[3] = target: T1, human serum albumin (HSA) (Homo sapiens, UniProt P02768); assay: Quenching of HSA intrinsic fluorescence (Stern-Volmer); assay type: binding; details: HSA 4 × 10^−6 mol L^−1, 296 K, pH 7.4; standard error 0.2 × 10^4 L mol^−1; corrected for inner filter effect
T1 construct: purchased Sigma-Aldrich
T1 sequence (P02768 25-609): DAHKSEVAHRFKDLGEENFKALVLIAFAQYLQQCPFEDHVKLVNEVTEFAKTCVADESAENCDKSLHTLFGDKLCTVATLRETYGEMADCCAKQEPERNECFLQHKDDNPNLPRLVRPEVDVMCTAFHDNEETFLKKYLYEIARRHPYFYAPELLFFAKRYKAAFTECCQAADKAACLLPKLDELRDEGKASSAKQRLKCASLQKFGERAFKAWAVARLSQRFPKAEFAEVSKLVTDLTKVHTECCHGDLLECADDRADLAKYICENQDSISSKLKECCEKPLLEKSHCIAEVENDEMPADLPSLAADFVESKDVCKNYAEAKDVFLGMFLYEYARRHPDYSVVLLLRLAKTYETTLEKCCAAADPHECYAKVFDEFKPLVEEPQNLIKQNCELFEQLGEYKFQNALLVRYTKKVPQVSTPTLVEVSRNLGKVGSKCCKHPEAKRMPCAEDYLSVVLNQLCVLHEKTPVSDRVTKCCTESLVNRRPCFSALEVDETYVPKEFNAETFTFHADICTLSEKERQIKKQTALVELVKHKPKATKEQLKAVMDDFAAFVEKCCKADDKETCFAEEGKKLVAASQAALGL
Method: (§1) Steady state fluorescence measurements were performed on a Varian-Agilent Cary Eclipse or a PTI QM1 fluorescence system. UV-Vis absorption spectra were obtained with an Agilent diode array spectrophotometer model 8452A. Fluorescence lifetimes were measured using IBH-Horiba-Jobin Yvon TCSPC system. NanoLEDs with 1.0 ns nominal pulse duration and 1 MHz repetition rate were used as light sources for exciting the intrinsic HSA or BSA fluorescence (283 nm) and NOR fluorescence (330 nm).
(§2) Quenching measurements of albumin fluorescence were taken in 3 mL of BSA or HSA (4 × 10^−6 mol L^−1) in phosphate buffer 10 mM at pH 7.4. The albumin solutions were titrated by successive additions of the complex stock solutions. The fluorescence emission spectra of BSA and HSA were measured using an excitation wavelength of 290 nm. Experiments were performed at ambient temperature (296 K) and pH 7.4.
(§3) In this section, the quenching of BSA and HSA fluorescence by Cu(II) ions, Cu(II)-bipy, Cu(II)-phen, and complexes 1 and 2 was monitored. All the UV absorption and emission spectra were registered. The fluorescence decay curves with excitation at 283 nm and emission at 340 nm were obtained in the absence of the quenchers, at an intermediary and at the final quencher concentration. The raw data are available in Supplementary Material available online at http://dx.doi.org/10.1155/2016/5027404. The fluorescence intensity was attenuated by absorption of the incident and emitted light. […] The fluorescence spectra were corrected using the following expression:(2) Fcorr=Fobs10^Aex+Aeml/2, where F corr and F obs are the corrected and observed fluorescence intensity, A ex and A em are the absorbance at the excitation and emission wavelengths, respectively, and ℓ is the optical path in cm.
(§4) Quenching of a fluorophore by a drug can occur by a static or dynamic process. Static or dynamic quenching at a single site can be described by the Stern-Volmer equation [36]:(3) F0/F=1+KSVQ, where F 0 and F are the fluorescence intensities of albumins in the absence and presence of complexes, respectively. [Q] is the quencher concentration, and K SV is the Stern-Volmer quenching constant, which is related to the bimolecular collisional process in dynamic quenching but is the association constant in static quenching. Stern-Volmer constants were obtained for the linear region of the plots (Table 3).

[4] = target: T2, bovine serum albumin (BSA) (Bos taurus, UniProt P02769); assay: Quenching of BSA intrinsic fluorescence (Stern-Volmer); assay type: binding; details: BSA 4 × 10^−6 mol L^−1, 296 K, pH 7.4; standard error 0.2 × 10^4 L mol^−1; corrected for inner filter effect
T2 construct: purchased Sigma-Aldrich
T2 sequence (P02769 25-607): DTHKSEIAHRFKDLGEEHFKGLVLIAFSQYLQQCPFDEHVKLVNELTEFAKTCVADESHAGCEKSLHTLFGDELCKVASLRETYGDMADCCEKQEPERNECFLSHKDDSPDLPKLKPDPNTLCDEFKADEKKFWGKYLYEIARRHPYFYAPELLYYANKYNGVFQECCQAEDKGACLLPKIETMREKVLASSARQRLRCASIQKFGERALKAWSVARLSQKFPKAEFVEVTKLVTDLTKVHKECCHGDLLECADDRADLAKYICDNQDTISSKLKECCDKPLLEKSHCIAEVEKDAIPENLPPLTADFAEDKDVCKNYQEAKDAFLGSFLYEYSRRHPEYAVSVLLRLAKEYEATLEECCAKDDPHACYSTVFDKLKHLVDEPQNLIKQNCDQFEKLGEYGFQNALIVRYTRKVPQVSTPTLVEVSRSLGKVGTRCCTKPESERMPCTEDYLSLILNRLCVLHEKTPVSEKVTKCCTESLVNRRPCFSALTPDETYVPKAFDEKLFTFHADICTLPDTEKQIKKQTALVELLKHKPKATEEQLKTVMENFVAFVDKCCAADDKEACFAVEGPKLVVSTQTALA
Method: as §1, §2, §3, §4

Molecule | SI (selective index: ratio between LC50/EC50 values) [1] | EC50 [1] [µM] | SI (selective index: ratio between LC50/EC50 values) [2] | EC50 ([2]; Trypanosoma cruzi) [µM] | K SV (Stern-Volmer constant) [3] [L/mol] | K SV (Stern-Volmer constant) [4] [L/mol] | times more active than benznidazole [2] | EC50 [2] [µM]
[Cl][Cu][Cl] [CuCl2] | 6 | 83 ± 3 |  |  |  |  |  | 
O=C(Cn1ccnc1[N+](=O)[O-])NCc1ccccc1 [Benznidazole] |  |  | 77 | 13 ± 2 |  |  |  | 
CCn1cc(C(=O)O)c(=O)c2cc(F)c(N3CCNCC3)cc21 [Norfloxacin, 1-ethyl-6-fluoro-1,4-dihydro-4-oxo-7-(1-piperazinyl)-quinoline-3-carboxylic acid] |  |  | >1.25 | 126 ± 30 |  |  |  | 
[Cu+2] [Cu(II)] |  |  |  |  | 29000 | 35000 |  | 
[CuCl2(phen)] | <4 | 7 ± 5 |  |  | 51000 | 35000 | 2-3 times | 
[CuCl2(phen)(NOR)]·3H2O [complex 2] |  |  | 2.68 |  | 49000 | 37000 | 2-3 times | 4.4 ± 1.4
[CuCl2(NOR)] |  |  | 0.8 |  |  |  |  | 78 ± 12
[Cl][Cu][Cl].c1ccc(-c2ccccn2)nc1 [[CuCl2(bipy)]] | 4.5 | 14 ± 7 |  |  | 50000 | 31000 |  | 
[CuCl(bipy)(NOR)]Cl·2H2O [complex 1] |  |  | 4 |  | 58000 | 30000 |  | 16 ± 4
